Values of other authors in patent US7261867B1 (Eastman Kodak Company, priority 2006, dated 2007).

Tests used:
Conditions in all cases: 0.5% concentration in polymethylmethacrylate bone cement
[1] = test system: Staphylococcus aureus
[2] = test system: Escherichia coli
[3] = test system: Pseudomonas aeruginosa

Measured: inhibition of bacterial growth

[Cl][Ag] [Silver chloride]
significantly inhibit: [1] | [2] | [3]

O=S(=O)([O-])[O-].[Ag+].[Ag+] [silver sulphate]
significantly inhibit: [1] | [2] | [3]

silver oxide
significantly inhibit: [1] | [2] | [3]
